Measured values: US5001149A, “Azadirachtin derivative insecticides” (NPI, priority 1987, dated 1991)
Converted amounts (≈) assume the structure as drawn. “Also recorded” adds a separate entry of the source.

Experiments:
[1] = system: first-instar Heliothis virescens larvae; assay: Mortality and growth inhibition in first-instar Heliothis virescens larvae fed in an artificial diet; type: in vivo; conditions: for EC50 (concentration causing 50% growth inhibition): first-instar larvae, artificial diet, in parentheses 95% confidence limits; for LC50 (concentration causing 50% mortality): heliothis virescens, in vivo; for LC50 (concentration causing 50% mortality) / LC50: po; for LC50: Heliothis virescens, read-out: LC50 (concentration causing 50% mortality)
Description: Mortality and growth inhibition in first-instar Heliothis
virescens larvae fed azadirachtin and eight derivatives in an
^b LC50 values are the concentrations (ppm) causing 50%
^c EC50 values are the concentrations (PPM) causing 50% growth
^d Numbers in parentheses are the 95% confidence limits determined
using the methods of Litchfield and Wilcoxon, J. Pharmacol. Exp. Ther.

[2] = system: fifth-instar Heliothis virescens larvae; assay: Pupal and adult development of fifth-instar larvae injected orally with non-irradiated compounds; type: in vivo; conditions: for mortality at 0.001 mg: Heliothis virescens, light or radiation study, po, read-out: % Mortality Prior to Adult Stage
Description: (§1) Individual larvae were injected per os on the first day of the fifth instar with 1.0 μg of one of the either irradiated or non-irradiated compounds dissolved in 1.0 μl of 75% aqueous ethanol.
Successful and unsuccessful pupal and adult development of fifthinstar
Heliothis Virescens larvae injected orally with 1.0 microgram of either
azadirachtin, 3deacetylazadirachtin, 22,23dihydroazadirachtin, or
2',3',22,23tetrahydroazadirachtin.

[3] = system: fifth-instar Heliothis virescens larvae; assay: Relative activity of UV-irradiated compounds in inhibiting pupal development (pupation); type: in vivo; conditions: for Relative activity, inhibiting pupal development: relative to non-irradiated
Description: (§2) Azadirachtin and its derivatives listed above (1.0 mg/ml absolute ethanol) were placed individually in capped quartz NMR tubes (5×180 mm) and were irradiated with two UV germicidal lights (GE, G30T8, 200-280 nm, 30 W) 1.8 m from the source at room temperature for up to 400 h. The controls were identical samples protected from exposure to UV radiation by wrapping with aluminum foil. At selected time intervals, aliquots from both the controls (non-irradiated) and irradiated samples were removed for high-performance liquid chromatography (HPLC) analysis (vide infra) and bioassay.
as §1
(§3) Relative activity of azadirachtin, 3deacetylazadirachtin,
22,23dihydroazadirachtin, and 2',3',22,23tetrahydroazadirachtin, all of
which had been exposed for 15, 30, 90, 200, and 400 hours to UV radiation
inhibiting the pupal development of fifthinstar Heliothis virescens
(§4) larvae. Relative activity is defined as the percentage of larvae injected

[4] = system: fifth-instar Heliothis virescens larvae; assay: Relative activity of UV-irradiated compounds in inhibiting adult development; type: in vivo; conditions: for Relative activity, inhibiting adult development: relative to non-irradiated
Description: as §2, §1, §3
22,23dihydroazadirachtin, 2',3',22,23tetrahydroazadirachtin, all of which
had been exposed for 15, 30, 90, 200, and 400 hours to UV radiation, in
inhibiting the adult development of fifthinstar Heliothis virescens
as §4
relative to the percentage injected with its nonirradiated counterpart

insects = conditions: Kubo & Klocke and other literature; cited from earlier work
insect = conditions: Kubo & Klocke; cited from earlier work
[5] = Stability to UV irradiation by reversed phase HPLC; type: physicochemical; conditions: for degraded at 90 h / half-life: absolute ethanol, uv
Description: Stability of Azadirachtin derivatives was determined as follows:
as §2
Analytical reversed phase HPLC was performed on a phenyl (5 μm) column run isocratically with acetonitrile-water (3:7) (Yamasaki et al.) Peaks were detected at 214 nm. The irradiated samples were compared with their corresponding non-UV-irradiated controls by measuring the height of the peak eluting at the appropriate Rt for each irradiated compound relative to each one's non-irradiated control. Results are expressed as the percent of the initial sample concentration remaining relative to the control. Each time point was done in at least triplicate fashion.

[6] = 1.0 microgram per os, fifth instar, non-irradiated
[7] = 1.0 microgram per os, non-irradiated

## 13,20-O, O-dicarbomethoxy-22,23-dihydroazadirachtin [Compound 6]
[1]
  EC50 (concentration causing 50% growth inhibition): 29.0 (20.3-41.5) ppm
  LC50 (concentration causing 50% mortality): 90.0 (37.8-214.5) ppm

## COC(=O)C1(O)OCC23C(OC(=O)C(C)(O)C(C)O)CC(OC(C)=O)C4(C(=O)OC)COC(C42)C(O)C(C)(C24OC2(C)C2CC4OC4OCCC42O)C13 (stereo not drawn) [Compound 9, 2',3'-dihydroxy-2',3'22,23-tetrahydroazadirachtin]
[1]
  LC50: 42 µg/mL (≈ 55.5 µM)

## 13-O-methylazadirachtin [Compound 5]
[1]
  EC50 (concentration causing 50% growth inhibition): 5.00 (1.54-16.25) ppm
  LC50 (concentration causing 50% mortality): 25.0 (12.2-51.4) ppm

## CCC(C)C(=O)OC1CC(OC(C)=O)C2(C(=O)OC)COC3C2C12COC(O)(C(=O)OC)C2C(C)(C12OC1(C)C1CC2OC2OCCC21O)C3O (stereo not drawn) [Compound 8, 2',3',22,23-tetrahydroazadirachtin]
[1]
  LC50: 0.3 µg/mL (≈ 0.414 µM)
[1]; relative to azadirachtin
  growth inhibitory and lethal activity, in words: retaining full activity; also recorded: fully active
[2]; [6]
  Number Pupae: 10
  Number Unsuccessful Larvae-Pupae: 6
  Number Unsuccessful Pupae-Adult: 1
[2]; [7]
  inhibition of pupation, in words: equally effective in inhibiting pupation
[2]
  mortality at 0.001 mg: 100%
[3]; 15 h UV
  Relative activity, inhibiting pupal development: 99.4%
[3]; 30 h UV
  Relative activity, inhibiting pupal development: 103.7%
[3]; 90 h UV
  Relative activity, inhibiting pupal development: 99.7%
[3]; 200 h UV
  ability to inhibit pupation, in words: most active in inhibiting pupation
  Relative activity, inhibiting pupal development: 108.0%
[3]; 400 h UV
  ability to inhibit pupation, in words: its activity declined after 400 h of exposure, it was still more active than the other test compounds
  loss in activity with degradation, in words: some loss in activity
  Relative activity, inhibiting pupal development: 69.1%
[4]; 15 h UV
  Relative activity, inhibiting adult development: 100.0%
[4]; 30 h UV
  Relative activity, inhibiting adult development: 100.0%
[4]; 90 h UV
  Relative activity, inhibiting adult development: 100.0%
[4]; 200 h UV
  Relative activity, inhibiting adult development: 100.0%
[4]; 400 h UV
  ability to inhibit larvae from reaching the adult stage, in words: fully active after 400 h of irradiation
  Relative activity, inhibiting adult development: 100.0%

## C/C=C(\C)C(=O)O[C@@H]1C[C@H](O)[C@]23CO[C@H](C(=O)OC)[C@H]2[C@](C)([C@]24O[C@@]2(C)[C@H]2C[C@@H]4O[C@@H]4OC=C[C@@]42O)[C@H](O)[C@@H]2OC[C@@]1(C(=O)OC)[C@H]23 [deacetylazadirachtinol]
insects
  ecdysis inhibitory activity, in words: the same ecdysis inhibitory activity
insect
  fold less active than azadirachtin as insect growth inhibitor: about 2.5 fold

## C/C=C(\C)C(=O)OC1CC(O)C2(C(=O)OC)COC3C2C12COC(O)(C(=O)OC)C2C(C)(C12OC1(C)C1CC2OC2OC=CC21O)C3O (stereo not drawn) [Compound 2, 3-deacetylazadirachtin]
[1]
  LC50: 0.37 µg/mL (≈ 0.545 µM)
[2]; [6]
  Number Unsuccessful Larvae-Pupae: 13
  Number Unsuccessful Pupae-Adult: 4
[2]; [7]
  inhibition of pupation, in words: less effective
[2]
  mortality at 0.001 mg: 94.1%
[3]; 15 h UV
  Relative activity, inhibiting pupal development: 115.2%
[3]; 30 h UV
  Relative activity, inhibiting pupal development: 135.0%
[3]; 90 h UV
  activity retained, in words: retained full activity
  Relative activity, inhibiting pupal development: 139.5%
[3]; 200 h UV
  ability to inhibit pupation, in words: did decline
  Relative activity, inhibiting pupal development: 86.8%
[3]; 400 h UV
  ability to inhibit pupation, in words: An even greater decline
  activity retained: approximately 50%
  Relative activity, inhibiting pupal development: 41.0%
[3]; up to 90 h UV
  ability to inhibit pupation, in words: not appreciably reduced
[4]; 15 h UV
  Relative activity, inhibiting adult development: 103.2%
[4]; 30 h UV
  Relative activity, inhibiting adult development: 106.3%
[4]; 90 h UV
  Relative activity, inhibiting adult development: 106.3%
[4]; 200 h UV
  ability to inhibit larvae from reaching the adult stage, in words: remained substantially unchanged until 400 h of irradiation
  Relative activity, inhibiting adult development: 96.0%
[4]; 400 h UV
  Relative activity, inhibiting adult development: 72.3%
[5]
  degradation, in words: none of the three compounds remained in their original state
  reaction order of UV degradation, in words: degraded in a first-order reaction
  degraded at 90 h: > 80%
  half-life: 25 h

## COC(=O)C1(O)OCC23C(O)CC(OC(C)=O)C4(C(=O)OC)COC(C42)C(O)C(C)(C24OC2(C)C2CC4OC4OCCC42O)C13 (stereo not drawn) [Compound 7, 1-detigloyl-22,23dihydroazadirachtin]
[1]
  LC50: 2.4 µg/mL (≈ 3.75 µM)

## C/C=C(\C)C(=O)OC1CC(OC(C)=O)C2(C(=O)OC)COC3C2C12COC(O)(C(=O)OC)C2C(C)(C12OC1(C)C1CC2OC2OCCC21O)C3O (stereo not drawn) [Compound 3, 22,23-dihydroazadirachtin]
[1]
  LC50: 0.47 µg/mL (≈ 0.65 µM)
[2]; [6]
  Number Unsuccessful Larvae-Pupae: 13
  Number Unsuccessful Pupae-Adult: 4
[2]; [7]
  inhibition of pupation, in words: less effective
[2]
  mortality at 0.001 mg: 96.6%
[3]; 15 h UV
  Relative activity, inhibiting pupal development: 113.1%
[3]; 30 h UV
  Relative activity, inhibiting pupal development: 104.6%
[3]; 90 h UV
  activity retained, in words: retained full activity
  Relative activity, inhibiting pupal development: 100.0%
[3]; 200 h UV
  ability to inhibit pupation, in words: did decline
  Relative activity, inhibiting pupal development: 72.7%
[3]; 400 h UV
  ability to inhibit pupation, in words: An even greater decline
  activity retained: approximately 50%
  Relative activity, inhibiting pupal development: 49.1%
[3]; up to 90 h UV
  ability to inhibit pupation, in words: not appreciably reduced
[4]; 15 h UV
  Relative activity, inhibiting adult development: 103.5%
[4]; 30 h UV
  Relative activity, inhibiting adult development: 100.1%
[4]; 90 h UV
  Relative activity, inhibiting adult development: 103.5%
[4]; 200 h UV
  ability to inhibit larvae from reaching the adult stage, in words: more so
  Relative activity, inhibiting adult development: 69.0%
[4]; 400 h UV
  Relative activity, inhibiting adult development: 74.5%
[5]
  degradation, in words: none of the three compounds remained in their original state
  reaction order of UV degradation, in words: degraded in a first-order reaction
  degraded at 90 h: > 80%
  half-life: 25 h

## 13O-acetylazadirachtin [Compound 4]
[1]
  EC50 (concentration causing 50% growth inhibition): 0.18 (0.08-0.40) ppm
  LC50 (concentration causing 50% mortality): 0.95 (0.59-1.54) ppm
